Where a SMILES comes first, the peptide text is derived from it. [ ]: non-standard residue; d: D form. The star is where a group is joined. Sta = CC(C)C[C@H](N)[C@@H](O)CC(=O)O; Isovaleryl = CC(C)CC(=O)*
Legend:
[1] = tested on: Ehrlich Ascites Carcinoma (EAC); test: Ehrlich ascites carcinoma; assay type: in vivo, Swiss albino mice; details: 20 mg/kg bw i.p., day 1-9
[2] = tested on: ODC mRNA; test: Real-time qPCR expression analysis; assay type: cell-based, human; details: GAPDH internal control
[3] = tested on: Ornithine decarboxylase (ODC); test: ODC assay, cell-free; assay type: biochemical; details: read-out: IC50 ODC; cell free (In vitro)
[4] = tested on: PC-3; test: MTT antiproliferative assay; assay type: cell-based; details: Homo sapiens, PC-3, 24 h, read-out: IC50 (MTT)
[5] = tested on: A431; test: SRB antiproliferative assay; assay type: cell-based; details: Homo sapiens, A-431, 24 h, read-out: IC50 (SRB)
[6] = tested on: MDA-MB-231; test: SRB antiproliferative assay; assay type: cell-based; details: Homo sapiens, MDA-MB-231, 24 h, read-out: IC50 (SRB)
[7] = tested on: A431 cells; test: Mitochondrial membrane potential; assay type: cell-based, human; details: A431, flow cytometry, 1 µM
[8] = tested on: A431; test: NRU antiproliferative assay; assay type: cell-based; details: Homo sapiens, A-431, 24 h, read-out: IC50 (NRU)
[9] = tested on: A431 cells; test: DCFH-DA ROS assay; assay type: cell-based, human; details: A431, flow cytometry, 1 µM
[10] = tested on: PC-3; test: SRB antiproliferative assay; assay type: cell-based; details: Homo sapiens, PC-3, 24 h, read-out: IC50 (SRB)
[11] = tested on: PC-3; test: NRU antiproliferative assay; assay type: cell-based; details: Homo sapiens, PC-3, 24 h, read-out: IC50 (NRU)
[12] = tested on: MDA-MB-231; test: MTT antiproliferative assay; assay type: cell-based; details: Homo sapiens, MDA-MB-231, 24 h, read-out: IC50 (MTT)
[13] = tested on: A431; test: MTT antiproliferative assay; assay type: cell-based; details: Homo sapiens, A-431, 24 h, read-out: IC50 (MTT)
[14] = tested on: MDA-MB-231; test: NRU antiproliferative assay; assay type: cell-based; details: Homo sapiens, MDA-MB-231, 24 h, read-out: IC50 (NRU)
[15] = tested on: DHFR mRNA; test: Real-time qPCR expression analysis; assay type: cell-based, human; details: GAPDH internal control
[16] = tested on: HYAL mRNA; test: Real-time qPCR expression analysis; assay type: cell-based, human; details: GAPDH internal control
[17] = tested on: hyaluronidase (HYAL); test: Hyaluronidase assay, cell-based; design: species or system human
[18] = tested on: hyaluronidase (HYAL); test: Hyaluronidase assay, cell-free; assay type: biochemical; details: read-out: IC50 HYAL; cell free (In vitro)
[19] = tested on: CAT D mRNA; test: Real-time qPCR expression analysis; assay type: cell-based, human; details: GAPDH internal control
[20] = tested on: K562; test: MTT antiproliferative assay; assay type: cell-based; details: Homo sapiens, K562, 24 h, read-out: IC50 (MTT)
[21] = molecular target: tubulin protein (Sus scrofa, UniProt P02550+P02554); test: Tubulin polymerization assay; assay type: biochemical; details: 10 μM
[22] = tested on: FaDu; test: MTT antiproliferative assay; assay type: cell-based; details: Homo sapiens, 24 h, read-out: IC50 (MTT)
[23] = tested on: FaDu; test: NRU antiproliferative assay; assay type: cell-based; details: Homo sapiens, 24 h, read-out: IC50 (NRU)
[24] = tested on: FaDu; test: SRB antiproliferative assay; assay type: cell-based; details: Homo sapiens, 24 h, read-out: IC50 (SRB)
[25] = tested on: K562; test: NRU antiproliferative assay; assay type: cell-based; details: Homo sapiens, K562, 24 h, read-out: IC50 (NRU)
[26] = tested on: K562; test: SRB antiproliferative assay; assay type: cell-based; details: Homo sapiens, K562, 24 h, read-out: IC50 (SRB)
[27] = tested on: A549; test: SRB antiproliferative assay; assay type: cell-based; details: Homo sapiens, A549, 24 h, read-out: IC50 (SRB)
[28] = tested on: A549; test: MTT antiproliferative assay; assay type: cell-based; details: Homo sapiens, A549, 24 h, read-out: IC50 (MTT)
[29] = tested on: A549; test: NRU antiproliferative assay; assay type: cell-based; details: Homo sapiens, A549, 24 h, read-out: IC50 (NRU)
[30] = tested on: LOX-5 mRNA; test: Real-time qPCR expression analysis; assay type: cell-based, human; details: GAPDH internal control
[31] = MDA-MB-231, with respect to control

Sequence of tubulin protein (P02550 whole entry): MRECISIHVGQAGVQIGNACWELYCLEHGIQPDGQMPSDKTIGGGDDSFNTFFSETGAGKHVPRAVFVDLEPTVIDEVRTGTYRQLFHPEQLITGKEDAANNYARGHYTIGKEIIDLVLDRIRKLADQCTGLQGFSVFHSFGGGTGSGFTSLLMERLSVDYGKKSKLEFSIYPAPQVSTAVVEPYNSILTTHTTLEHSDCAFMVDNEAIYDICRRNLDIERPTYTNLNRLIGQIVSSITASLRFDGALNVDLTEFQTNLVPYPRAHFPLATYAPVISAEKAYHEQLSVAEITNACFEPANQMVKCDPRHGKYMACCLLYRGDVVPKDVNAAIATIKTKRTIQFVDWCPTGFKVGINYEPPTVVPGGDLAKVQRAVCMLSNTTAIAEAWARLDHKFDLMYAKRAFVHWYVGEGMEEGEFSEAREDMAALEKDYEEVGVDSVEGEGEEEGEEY
Sequence of tubulin protein (P02554 whole entry): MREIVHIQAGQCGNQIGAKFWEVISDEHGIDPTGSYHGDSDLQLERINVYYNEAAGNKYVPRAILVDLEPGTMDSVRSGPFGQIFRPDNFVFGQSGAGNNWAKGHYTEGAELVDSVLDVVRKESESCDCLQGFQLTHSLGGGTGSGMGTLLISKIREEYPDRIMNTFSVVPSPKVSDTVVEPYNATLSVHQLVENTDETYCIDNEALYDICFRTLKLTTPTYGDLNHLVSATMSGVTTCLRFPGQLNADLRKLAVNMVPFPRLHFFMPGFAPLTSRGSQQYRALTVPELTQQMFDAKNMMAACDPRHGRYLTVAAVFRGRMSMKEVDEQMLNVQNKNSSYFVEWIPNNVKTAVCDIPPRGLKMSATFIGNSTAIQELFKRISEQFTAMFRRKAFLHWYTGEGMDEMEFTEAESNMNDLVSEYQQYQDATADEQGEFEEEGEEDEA

In the case of `O=c1[nH]cc(F)c(=O)[nH]1` [5-fluorouracil, reference compound], the “reduction of EAC tumor formation (tumor growth inhibition)” value [1] is reported as 98.39%.
`NCCC[C@](N)(C(=O)O)C(F)F` [DFMO, α-difluoromethylornithine] was tested, and the “ODC mRNA expression level” value ([2]; A431, with respect to control) was 5.42 fold change, the “ODC mRNA expression level” value ([2]; A549, with respect to control) was 4.24 fold change and the “ODC mRNA expression level” value ([2]; FaDu, with respect to control) was 2.57 fold change. The “ODC mRNA expression level” value ([2]; K562, with respect to control) was 4.07 fold change, the “ODC mRNA expression level” value [2, 31] was 3.67 fold change and the “ODC mRNA expression level” value ([2]; PC-3, with respect to control) was 6.55 fold change. It also gave an IC50 [3] of 7.54 ± 5.8 µM.
`COc1cccc2c1C(=O)c1c(O)c3c(c(O)c1C2=O)C[C@@](O)(C(=O)CO)C[C@@H]3O[C@H]1C[C@H](N)[C@H](O)[C@H](C)O1` [Doxorubicin, reference compound] gave an IC50 [4] of 2.24 ± 1.56 µM, an IC50 [5] of 1.21 ± 0.03 µM and an IC50 [6] of 1.51 ± 0.86 µM. The “total of FITC mean (Rh123)” value [7] was 2735 ± 5.65, the IC50 [8] was 1.15 ± 0.37 µM and the “total mean of DCF positive cells” value [9] was 370 ± 14.14. The IC50 [10] was 3 ± 1.16 µM, the IC50 [11] was 1.2 ± 0.36 µM and the IC50 [12] was 1.55 ± 0.95 µM. For the same molecule, the IC50 [13] was 1.6 ± 0.09 µM and the IC50 [14] was 3.64 ± 1.8 µM.
With `CN(Cc1cnc2nc(N)nc(N)c2n1)c1ccc(C(=O)N[C@@H](CCC(=O)O)C(=O)O)cc1` [MTX, Methotrexate] the “DHFR mRNA expression level” value ([15]; A431, with respect to control) was 2.92 fold change, the “DHFR mRNA expression level” value ([15]; A549, with respect to control) was 2.20 fold change and the “DHFR mRNA expression level” value ([15]; FaDu, with respect to control) was 2.82 fold change. The “DHFR mRNA expression level” value ([15]; K562, with respect to control) was 2.20 fold change, the “DHFR mRNA expression level” value [15, 31] was 2.59 fold change and the “DHFR mRNA expression level” value ([15]; PC-3, with respect to control) was 2.0 fold change.
`CC(=O)N[C@@H](CS)C(=O)O` [NAC, N-acetyl cysteine] was tested, and the “HYAL mRNA expression level” value ([16]; A431, with respect to control) was 4.50 fold change, the “HYAL mRNA expression level” value ([16]; A549, with respect to control) was 4.09 fold change and the “HYAL mRNA expression level” value ([16]; FaDu, with respect to control) was 6.66 fold change. The “HYAL mRNA expression level” value ([16]; K562, with respect to control) was 8.98 fold change, the “HYAL mRNA expression level” value [16, 31] was 6.87 fold change and the “HYAL mRNA expression level” value ([16]; PC-3, with respect to control) was 5.64 fold change. It also gave an IC50 ([17]; read-out: IC50 HYAL, A431) of 8.2 ± 1.42 µM, an IC50 ([17]; read-out: IC50 HYAL, A549) of 13.7 ± 4.37 µM and an IC50 ([17]; read-out: IC50 HYAL, FaDu) of 7.44 ± 0.67 µM. The IC50 ([17]; read-out: IC50 HYAL, K562) was 7.56 ± 0.59 µM, the IC50 ([17]; read-out: IC50 HYAL, MDA-MB-231) was 14.6 ± 3.07 µM and the IC50 ([17]; read-out: IC50 HYAL, PC-3) was 9.44 ± 3.13 µM. It also gave an IC50 [18] of 5.92 ± 0.7 µM.
`CC(C)CC(=O)N[C@H](C(=O)N[C@H](C(=O)N[C@@H](CC(C)C)[C@@H](O)CC(=O)N[C@@H](C)C(=O)N[C@@H](CC(C)C)[C@@H](O)CC(=O)O)C(C)C)C(C)C` [PEP A, pepstatin A, reference compound] (Isovaleryl-VV[Sta]A[Sta]-OH) was tested, and the “CAT D mRNA expression level” value ([19]; A431, with respect to control) was 1.61 fold change, the “CAT D mRNA expression level” value ([19]; A549, with respect to control) was 2.77 fold change and the “CAT D mRNA expression level” value ([19]; FaDu, with respect to control) was 2.22 fold change. The “CAT D mRNA expression level” value ([19]; K562, with respect to control) was 3.12 fold change, the “CAT D mRNA expression level” value [19, 31] was 1.81 fold change and the “CAT D mRNA expression level” value ([19]; PC-3, with respect to control) was 1.66 fold change.
`COc1cc([C@@H]2c3cc4c(cc3[C@H](O)[C@H]3COC(=O)[C@H]23)OCO4)cc(OC)c1OC` [Podophyllotoxin] was tested, and the IC50 [20] was 46.4 ± 4.27 µM, the “effect on tubulin polymerization” value [21] was “inhibit the polymerization of α and β tubulin” and the IC50 [22] was 16.2 ± 1.04 µM. It also gave an IC50 [23] of 25.3 ± 0.28 µM, an IC50 [24] of 34.1 ± 1.79 µM and an IC50 [25] of 32.3 ± 3.11 µM. It also gave an IC50 [26] of 50.26 ± 0.45 µM.
With `CC(=O)O[C@H]1C(=O)[C@@]2(C)[C@H]([C@H](OC(=O)c3ccccc3)[C@]3(O)C[C@H](OC(=O)[C@H](O)[C@@H](NC(=O)c4ccccc4)c4ccccc4)C(C)=C1C3(C)C)[C@]1(OC(C)=O)CO[C@@H]1C[C@@H]2O` [Taxol, paclitaxel] the IC50 [27] was 1.15 ± 0.16 µM, the IC50 [28] was 2.1 ± 0.81 µM and the IC50 [29] was 1.18 ± 0.13 µM. For the same molecule, the “effect on tubulin polymerization” value [21] was “stabilizes the tubulin polymerization”.
With `CC(c1cc2ccccc2s1)N(O)C(N)=O` (stereo not drawn) [Zileuton] the “LOX-5 mRNA expression level” value ([30]; A431, with respect to control) was 3.10 fold change, the “LOX-5 mRNA expression level” value ([30]; FaDu, with respect to control) was 2.96 fold change and the “LOX-5 mRNA expression level” value ([30]; K562, with respect to control) was 3.01 fold change. For the same molecule, the “LOX-5 mRNA expression level” value [30, 31] was 3.09 fold change and the “LOX-5 mRNA expression level” value ([30]; PC-3, with respect to control) was 2.22 fold change.
